Legend:
[1] = Antagonist activity at human CCR4 receptor assessed as inhibition of CCL22-induced chemotaxis by bioluminescent assay
[2] = Antagonist activity at mouse CCR4 receptor assessed as inhibition of CCL22-induced chemotaxis by bioluminescent assay

With `COc1cc2nc(N3CCC(N(C)CCCO)CC3)nc(Nc3ccc(Cl)cc3)c2cc1OC` [3-[(1-{4-[(4-Chlorophenyl)amino]-6,7-dimethoxyquinazolin-2-yl}piperidin-4-yl)(methyl)amino]propan-1-ol] as the molecule, how does the IC50 [1] read?
Its IC50 is 280 nM.

Which IC50 [1] does the source give for `COc1cc2nc(N3CCC(N(C)CCCCO)CC3)nc(Nc3ccc(Cl)cc3)c2cc1OC` [4-[(1-{4-[(4-Chlorophenyl)amino]-6,7-dimethoxyquinazolin-2-yl}piperidin-4-yl)(methyl)amino]butan-1-ol] here?
The IC50 was 360 nM.

What does the source list for `COc1cc2nc(N3CCC(N4CCCC4)CC3)nc(Nc3ccc(F)c(F)c3)c2cc1OC` [N-(3,4-Difluorophenyl)-6,7-dimethoxy-2-(4-pyrrolidin-1-ylpiperidin-1-yl)quinazolin-4-amine]?
IC50 [2]: 820 nM; IC50 [1]: 69 nM

For `COc1cc2nc(N3CCC(N4CCCC4)CC3)nc(Nc3ccc(F)cc3)c2cc1OC` [N-(4-Fluorophenyl)-6,7-dimethoxy-2-(4-pyrrolidin-1-ylpiperidin-1-yl)quinazolin-4-amine], which IC50 [2] is on record?
The IC50 was 710 nM.

And the IC50 [1]?
The IC50 was 320 nM.

Source: BindingDB's records for doi:10.1016/j.bmc.2008.07.062 (Astellas Pharma, 2008)
